Assay results: patent US4357344A, “Polybutylbenzylphenols and benzyl-3,4-methylenedioxybenzenes in insect population control” (The United States of America as represented by the …, priority 1979, dated 1982)

Key:
Assay type in all cases: in vivo
flies (family Muscidae) [1] = assay: Oviposition inhibition tests (treated fly food; Examples 6-9)
Protocol: The compound to be tested was administered in a standard fly food containing 6 parts of sugar, 6 parts of powdered non-fat dry milk, and 1 part of powdered egg yolk. Treated food was prepared by mixing an appropriate amount of a solution or suspension of CBCP in acetone with a batch of the food. The acetone was evaporated (4-6 hours) and the dry material was repulverized. Oviposition inhibition tests: Samples of treated food with a container of water were placed in cages containing 100 newly-emerged adult flies (family Muscidae). After the flies had been exposed to the treated diet for 6-7 days, 1/2 inch of moist standard fly larva-rearing medium (CSMA) in souffle cups was placed in the cages for oviposition. After 4-6 hours, the cup was removed and examined for eggs. […] The procedure outlined in Example 6 was followed using a Group II compound. The procedure outlined in Example 6 was followed using Group III compounds. The results are summarized below: The procedure outlined in Example 6 was followed substituting a Group IV compound for those of Group I. The table below provides a summary of results.

flies (family Muscidae) [2] = assay: Chemosterilancy tests (egg hatch and pupal development; Examples 6-9)
Protocol: The compound to be tested was administered in a standard fly food containing 6 parts of sugar, 6 parts of powdered non-fat dry milk, and 1 part of powdered egg yolk. Treated food was prepared by mixing an appropriate amount of a solution or suspension of CBCP in acetone with a batch of the food. The acetone was evaporated (4-6 hours) and the dry material was repulverized.
Chemosterilancy tests: If eggs were laid in the above tests, the cups were filled with water and stirred to break up the egg masses. A random sample of 100 eggs from each cup was collected and placed on a small piece of black cloth which was then laid on top of moist larva-rearing medium in a rearing container. Observations were made to determine percentage of egg hatch and pupal development.
The procedure outlined in Example 6 was followed using a Group II compound.
The procedure outlined in Example 6 was followed using Group III compounds. The results are summarized below:
The procedure outlined in Example 6 was followed substituting a Group IV compound for those of Group I. The table below provides a summary of results.

[3] = test system: early fourth-stage larvae of the common malaria mosquito (Anopheles quadrimaculatus); assay: Growth-inhibition tests on mosquito larvae; settings: in water; corrected by Abbott's formula
Protocol: The compound to be tested was added to one liter of water until the final concentration thereof was a growth-inhibiting amount. Fifty early fourth-stage larvae of the common malaria mosquito (Anopheles quadrimaculatus) were placed on this water. Larval food was administered daily. Dead larvae and pupae were removed, counted, and discarded daily. Live pupae were removed, rinsed, and transferred to a cup of distilled water. The cup was placed in an emergence cage, and the emerging adults, if any, were maintained on a sugar-water diet.
The effectiveness of the compound in inhibiting growth was determined by adding the number of dead larvae and pupae and the number of adults that were dead, unable to complete eclosion, and malformed. This sum was corrected by Abbott's formula (to adjust for the number of larvae or pupae which would die naturally) and designated as the GI (growth inhibition). The results are expressed as GI-90, i.e., the concentration of growth inhibitor in ppm that would prevent and/or retard growth in 90% of the treated larvae.

| Structure (SMILES) | Mortality, parent generation (flies (family Muscidae) [1]; 0.25% in food) [%] | Mortality, parent generation (flies (family Muscidae) [1]; 0.5% in food) [%] | Egg hatch (flies (family Muscidae) [2]; 0.25% in food) [%] | Pupal development (flies (family Muscidae) [2]; 0.25% in food) [%] | GI-90 (concentration of growth inhibitor that would prevent and/or retard growth in 90% of the treated larvae) [3] [ppm] | Mortality, parent generation (flies (family Muscidae) [1]; 0.05% in food) [%] | Mortality, parent generation (flies (family Muscidae) [1]; 0.1% in food) [%] | Egg hatch (flies (family Muscidae) [2]; 0.05% in food) [%] | Pupal development (flies (family Muscidae) [2]; 0.05% in food) [%] | Egg hatch (flies (family Muscidae) [2]; 0.1% in food) [%] | Pupal development (flies (family Muscidae) [2]; 0.1% in food) [%] | other results |
| --- | --- | --- | --- | --- | --- | --- | --- | --- | --- | --- | --- | --- |
| COc1cc2c(cc1C(C)c1ccccc1)OCO2 (stereo not drawn) [Compound T, (α-Methylbenzyl)-3,4-methylenedioxy-6-methoxybenzene] | 60 | 42 | 56 | 56 | 0.6 | – | – | – | – | – | – | Egg hatch (flies (family Muscidae) [2]; 0.5% in food): 0%; Pupal development (flies (family Muscidae) [2]; 0.5% in food): 0% |
| CCCc1cc2c(cc1Cc1ccc(OC)cc1)OCO2 [DD, (4-Methoxybenzyl)-3,4-methylenedioxy-6-n-propylbenzene] | 0 | – | – | – | 0.2 | 0 | 0 | 0 | 0 | 0 | 0 | Mortality, parent generation (flies (family Muscidae) [1]; 0.025% in food): 0%; Egg hatch (flies (family Muscidae) [2]; 0.025% in food): 7%; Pupal development (flies (family Muscidae) [2]; 0.025% in food): 7% |
| CC(c1ccccc1)c1cc(C(C)(C)C)c(O)c(C(C)(C)C)c1 (stereo not drawn) [E, 2,6-Di-t-butyl-4-(α-methylbenzyl)phenol] | 0 | 0 | 0 | 0 | 0.072 | – | 0 | – | – | 36 | 36 | Mortality, parent generation (flies (family Muscidae) [1]; 1.0% in food): 0%; Oviposition (flies (family Muscidae) [1]; 1.0% in food): Normal; Egg hatch (flies (family Muscidae) [2]; 0.5% in food): 0%; Pupal development (flies (family Muscidae) [2]; 0.5% in food): 0%; Egg hatch (flies (family Muscidae) [2]; 1.0% in food): 0%; Pupal development (flies (family Muscidae) [2]; 1.0% in food): 0% |
| COc1ccc(C(C)c2cc3c(cc2OC)OCO3)cc1 (stereo not drawn) [H, (α-Methyl-4-methoxybenzyl)-3,4-methylenedioxy-6-methoxybenzene] | – | – | – | – | 0.5 | – | – | – | – | – | – | Mortality, parent generation (flies (family Muscidae) [1]; 0.01% in food): 0%; Mortality, parent generation (flies (family Muscidae) [1]; 0.025% in food): 0%; Egg hatch (flies (family Muscidae) [2]; 0.01% in food): 14%; Pupal development (flies (family Muscidae) [2]; 0.01% in food): 14%; Egg hatch (flies (family Muscidae) [2]; 0.025% in food): 45%; Pupal development (flies (family Muscidae) [2]; 0.025% in food): 45% |
| COc1ccc(Cc2ccc3c(c2)OCO3)cc1C [HH, (3-Methyl-4-methoxybenzyl)-3,4-methylenedioxybenzene] | 80 | – | – | – | – | – | 0 | – | – | 82 | 82 | – |
| CCOc1ccc(Cc2ccc3c(c2)OCO3)cc1C [II, (3-Methyl-4-ethoxybenzyl)-3,4-methylenedioxybenzene] | 0 | 80 | 50 | 50 | – | – | – | – | – | – | – | – |
| CCCCOc1cc2c(cc1C(C)c1ccc(OC)cc1)OCO2 (stereo not drawn) [J, (α-methyl-4-methoxybenzyl)-3,4-methylenedioxy-6-n-butoxybenzene] | – | – | – | – | 0.025 | 0 | – | 3 | 3 | – | – | Mortality, parent generation (flies (family Muscidae) [1]; 0.01% in food): 0%; Mortality, parent generation (flies (family Muscidae) [1]; 0.025% in food): 0%; Egg hatch (flies (family Muscidae) [2]; 0.025% in food): 61%; Pupal development (flies (family Muscidae) [2]; 0.025% in food): 61% |
| COc1c(C)cc(Cc2ccc3c(c2)OCO3)cc1C [JJ, (3,5-Dimethyl-4-methoxybenzyl)-3,4-methylenedioxybenzene] | 0 | 70 | 0 | 0 | 0.6 | 0 | 0 | 70 | 70 | 6 | 6 | – |
| CCCCCOc1cc2c(cc1C(C)c1ccc(OC)cc1)OCO2 (stereo not drawn) [K, (α-methyl-4-methoxybenzyl)-3,4-methylenedioxy-6-n-pentoxybenzene] | 0 | 0 | 0 | 0 | 0.060 | – | 0 | – | – | 70 | 70 | Mortality, parent generation (flies (family Muscidae) [1]; 1.0% in food): 0%; Egg hatch (flies (family Muscidae) [2]; 0.5% in food): 0%; Pupal development (flies (family Muscidae) [2]; 0.5% in food): 0%; Egg hatch (flies (family Muscidae) [2]; 1.0% in food): 0%; Pupal development (flies (family Muscidae) [2]; 1.0% in food): 0% |
| CCOc1c(C)cc(Cc2ccc3c(c2)OCO3)cc1C [KK] | 0 | 85 | 85 | 85 | 0.9 | – | – | – | – | – | – | – |
| COc1ccc(Cc2cc3c(cc2OC)OCO3)cc1 [L, (4-Methoxybenzyl)-3,4-methylenedioxy-6-methoxybenzene] | 60 | – | – | – | – | 0 | 0 | 0 | 0 | 0 | 0 | Mortality, parent generation (flies (family Muscidae) [1]; 0.01% in food): 0%; Egg hatch (flies (family Muscidae) [2]; 0.01% in food): 91%; Pupal development (flies (family Muscidae) [2]; 0.01% in food): 91% |
| COc1ccc(Cc2ccc3c(c2)OCO3)c(OC)c1 [LL, (2,4-Dimethoxybenzyl)-3,4-methylenedioxybenzene] | 60 | – | – | – | 0.2 | – | 0 | – | – | 76 | 76 | – |
| CCOc1cc2c(cc1Cc1ccc3c(c1)OCO3)OCO2 [NN, (3,4-methylenedioxy-6-ethoxybenzyl)-3,4-methylenedioxybenzene] | – | – | – | – | – | 0 | 0 | 2 | 2 | 0 | 0 | – |
| COc1ccc(Cc2cc3c(cc2OC(C)C)OCO3)cc1 [O, (4-Methoxybenzyl)-3,4-methylenedioxy-6-iso-propoxybenzene] | 0 | 80 | 0 | 0 | 0.8 | 0 | – | 48 | 48 | – | – | – |
| CCCCOc1cc2c(cc1Cc1ccc(OC)cc1)OCO2 [P, (4-Methoxybenzyl)-3,4-methylenedioxy-6-n-butoxybenzene] | 0 | 0 | 0 | 0 | 0.047 | 0 | 0 | 36 | 36 | 10 | 10 | Egg hatch (flies (family Muscidae) [2]; 0.5% in food): 0%; Pupal development (flies (family Muscidae) [2]; 0.5% in food): 0% |
| COc1ccc(Cc2cc3c(cc2OCC(C)C)OCO3)cc1 [Q, (4-Methoxybenzyl)-3,4-methylenedioxy-6-iso-butoxybenzene] | 0 | 90 | 0 | 0 | 0.082 | 0 | 0 | 28 | 28 | 0 | 0 | – |
| CCCCCOc1cc2c(cc1Cc1ccc(OC)cc1)OCO2 [R] | 0 | – | 0 | 0 | – | 0 | 0 | 76 | 76 | 31 | 31 | – |
| CCCCCOc1cc2c(cc1C(C)c1ccccc1)OCO2 (stereo not drawn) [W, (α-Methylbenzyl)-3,4-methylenedioxy-6-n-pentoxybenzene] | – | – | – | – | 0.2 | – | – | – | – | – | – | – |
